In patent publication US20060063784A1, “Method of using substituted pyrazolo [1,5-a] pyrimidines” (priority 2004, published 2006):
Like-named read-outs stand apart in the source and are kept apart here.

Tested on: 80S14 (p21-deficient) cells
Assay: Cytotoxicity assay using isogenic cell lines: IC50 in 80S14 (p21-deficient) cells, SRB
Format: cell-based, human
In short: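 IC50 is the concentration halving proliferation relative to untreated controls, read from SRB absorbance (560 nm) after TCA fixation. Test agent dilutions (5 pM–50 μM or 170 pg/ml–10 μg/ml) were left on p21-deficient 80S14 cells (12,000/well, pre-incubated overnight) for 5 days at 37 °C.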

[1] = Homo sapiens, 120 h, 80S14 (p21-deficient) cells, 5 days, SRB, class symbols, read-out: IC50 for 80S14
[2] = Homo sapiens, 120 h, 80S14 p21-deficient cells, 5 days incubation, SRB, read-out: IC50 for 80SI4
[3] = Homo sapiens, 80S14, 120 h, read-out: IC50 for 80S14 (uM)
[4] = 80S14 p21-deficient cells, 5 days incubation, SRB, read-out: IC50 for 80SI4

Compound	IC50 [1] [µM]	IC50 [2] [µM]	other results
O=C(c1cccs1)c1cnn2c(-c3cccc(F)c3)ccnc12 [Example 225, [7-(3-Fluorophenyl)pyrazolo[1,5-a]-pyrimidin-3-yl}-2-thienyl-methanone]	10 to 50		
CCCCCCCCCCC(=O)Nc1cccc(-c2ccnc3c(C(=O)c4cccs4)cnn23)c1 [Example 142, N-{3-[3-(thien-2-ylcarbonyl)pyrazolo[1,5-a]pyrimidin-7-yl]phenyl}undecanamide]		10 to 50	
O=C(Nc1cccc(-c2ccnc3c(C(=O)c4cccs4)cnn23)c1)OCc1ccncc1 [Example 416, Pyridin-4-ylmethyl 3-[3-(thien-2-ylcarbonyl)pyrazolo[1,5-a]pyrimidin-7-yl]phenylcarbamate]	< 1		
C/C(=C\c1ccccc1)CNc1cccc(-c2ccnc3c(C(=O)c4cccs4)cnn23)c1 [Example 397, [7-(3-{[(2E)-2-Methyl-3-phenylprop-2-enyl]amino}phenyl)pyrazolo[1,5-a]pyrimidin-3-yl] (thien-2-yl)methanone]	10 to 50		
O=C(c1cccs1)c1cnn2c(-c3cc([N+](=O)[O-])ccc3Cl)ccnc12 [Example 336, [7-(2-Chloro-5-nitrophenyl)pyrazolo[1,5-a]pyrimidin-3-yl](thien-2-yl)methanone]	10 to 50		
CCCCS(=O)(=O)Nc1cccc(-c2ccnc3c(C(=O)c4cccs4)cnn23)c1 [Example 29, N-{3-[3-(thien-2-ylcarbonyl)pyrazolo[1,5-a]pyrimidin-7-yl]phenyl}butane-1-sulfonamide]		1 to 10	
O=C(c1cccs1)c1cnn2c(-c3cccc(NS(=O)(=O)c4ccc(F)cc4)c3)ccnc12 [Example 34, 4-fluoro-N-{3-[3-(thien-2-ylcarbonyl)pyrazolo[1,5-a]pyrimidin-7-yl]phenyl}benzenesulfonamide]		< 1	
C=CCCOC(=O)NCC(=O)Nc1cccc(-c2ccnc3c(C(=O)c4cccs4)cnn23)c1 [Example 118, but-3-enyl-2-oxo-2-({3-[3-(thien-2-ylcarbonyl)pyrazolo[1,5-a]pyrimidin-7-yl]phenyl}amino)ethylcarbamate]		1 to 10	
O=C(c1cccs1)c1cnn2c(-c3cccc(C(F)(F)F)c3)ccnc12 [Example 223, [7-(3-Trifluoromethylphenyl)pyrazolo[1,5-a]-pyrimidin-3-yl}-2-thienyl-methanone]	1 to 10		
Cc1ccc(C(=O)c2cnn3c(-c4cccc(NC(=O)C5CC5)c4)ccnc23)s1 [Example 252, N-[3-[3-[(5-Methyl-2-thienyl)carbonyl]pyrazolo[1,5-a]pyrimidin-7-yl]phenyl}-cyclopropanecarboxamide]	1 to 10		
CC(C)S(=O)(=O)Nc1cccc(-c2ccnc3c(C(=O)c4cccs4)cnn23)c1 [Example 30, N-{3-[3-(thien-2-ylcarbonyl)pyrazolo[1,5-a]pyrimidin-7-yl]phenyl} propane-2-sulfonamide]		1 to 10	
O=C(Nc1cccc(-c2ccnc3c(C(=O)c4cccs4)cnn23)c1)C(Cl)=C(Cl)Cl [Example 144, 2,3,3-trichloro-N-{3-[3-(thien-2-ylcarbonyl)pyrazolo[1,5-a]pyrimidin-7-yl]phenyl}acrylamide]		< 1	
CC(C)(C)C(=O)Nc1cccc(-c2ccnc3c(C(=O)c4ccco4)cnn23)c1 [Example 243, N-[3-[3-(2-Furanylcarbonyl)pyrazolo-[1,5-a]pyrimidin-7-yl]phenyl}-2,2-dimethyl-propanamide]			IC50 [3]: 1 to 10 µM
CC(=O)Nc1cccc(-c2ccnc3c(C(=O)c4cccs4)cnn23)c1 [Example 250, N-[3-[3-(2-Thienylcarbonyl)pyrazolo[1,5-a]pyrimidin-7-yl]phenyl}-acetamide]			IC50 [3]: 1 to 10 µM
CCN(C(=O)C1CC1)c1cccc(-c2ccnc3c(Cl)cnn23)c1 [Example 255, N-[3-(3-Chloropyrazolo[1,5-a]pyrimidin-7-yl)phenyl]-N-ethyl-cyclopropanecarboxamide]	10 to 50		
CCC(C)C(=O)Nc1cccc(-c2ccnc3c(C(=O)c4cccs4)cnn23)c1 (centres unmarked) [Example 145]			IC50 [4]: < 1 µM
COC(=O)[C@@H](NC(=O)Nc1cccc(-c2ccnc3c(C(=O)c4cccs4)cnn23)c1)C(C)C [Example 4, methyl N-[({3-[3-(thien-2-ylcarbonyl)pyrazolo[1,5-a]pyrimidin-7-yl]phenyl}amino)carbonyl]-L-valinate]		< 1	
CCCC(C)C(=O)Nc1cccc(-c2ccnc3c(C(=O)c4cccs4)cnn23)c1 (centres unmarked) [Example 154, 2-methyl-N-{3-[3-(thien-2-ylcarbonyl)pyrazolo[1,5-a]pyrimidin-7-yl]phenyl}pentanamide]			IC50 (Homo sapiens, 80S14, 120 h, read-out: IC50 for 80SI4 (uM)): < 1 µM
CN1CCCN(C(=O)Nc2cccc(-c3ccnc4c(C(=O)c5cccs5)cnn34)c2)CC1 [Example 167, 4-methyl-N-{3-[3-(thien-2-ylcarbonyl)pyrazolo[1,5-a]pyrimidin-7-yl]phenyl}-1,4-diazepane-1-carboxamide]		1 to 10	
Cc1nn2c(-c3cccc(NC(=O)OC(C)C)c3)ccnc2c1C(=O)c1cccs1 [Example 308, Isopropyl 3-[2-methyl-3-(2-thienylcarbonyl)pyrazolo[1,5-a]pyrimidin-7-yl]phenylcarbamate]	10 to 50		
O=C(c1cccs1)c1cnn2c(-c3cccc(NC(=O)C45CC6CC(CC(C6)C4)C5)c3)ccnc12 [Example 53, N-{3-[3-(thien-2-ylcarbonyl)pyrazolo[1,5-a]pyrimidin-7-Yl]phenyl}adamantine-1-carboxamide]			IC50 [4]: < 1 µM
O=C(CNC(=O)OCCCCCl)Nc1cccc(-c2ccnc3c(C(=O)c4cccs4)cnn23)c1 [Example 119, 4-chlorobutyl 2-oxo-2-({3-[3-(thien-2-ylcarbonyl)pyrazolo[1,5-a]pyrimidin-7-yl]phenyl}amino)ethylcarbamate]		10 to 50	
CCOC(=O)CNC(=O)Nc1cccc(-c2ccnc3c(C(=O)c4cccs4)cnn23)c1 [Example 10, ethyl N-[({3-[3-(thien-2-ylcarbonyl)pyrazolo[1,5-a]pyrimidin-7-yl]phenyl}amino)carbonyl]glycinate]		10 to 50	
CCCCOC(=O)Nc1cccc(-c2c(C)cnc3c(C(=O)c4cccs4)cnn23)c1 [Example 209, butyl 3-[6-methyl-3-(thien-2-ylcarbonyl)pyrazolo[1,5-a]pyrimidin-7-yl]phenylcarbamate]		10 to 50	
O=C(c1cccs1)c1cnn2c(-c3cccc(-n4cccc4)c3)ccnc12 [Example 270, [7-[3-(1H-Pyrrol-1-yl)phenyl]pyrazolo[1,5-a]pyrimidin-3-yl]-2-thienyl-methanone]	1 to 10		
C=CCCC(=O)Nc1cccc(-c2ccnc3c(C(=O)c4cccs4)cnn23)c1 [Example 57, N-{3-[3-(thien-2-ylcarbonyl)pyrazolo[1,5-a]pyrimidin-7-yl]phenyl}pent-4-enamide]		< 1	
O=C(c1ccccc1)c1cnn2c(-c3cccc(NC(=O)C4CC4)c3)ccnc12 [Example 230, N-[3-(3-Benzoylpyrazolo-[1,5-a]pyrimidin-7-yl)phenyl]-cyclopropanecarboxamide]	1 to 10		
CCNc1ccc(-c2ccnc3c(C(=O)c4cccs4)cnn23)cc1 [Example 271, [7-[4-(Ethylamino)phenyl]pyrazolo[1,5-a]pyrimidin-3-yl]-2-thienyl-methanone]	10 to 50		
CCCCCCOC(=O)NCC(=O)Nc1cccc(-c2ccnc3c(C(=O)c4cccs4)cnn23)c1 [Example 122, hexyl 2-oxo-2-({3-[3-(thien-2-ylcarbonyl)pyrazolo[1,5-a]pyrimidin-7-yl]phenyl}amino)ethylcarbamate]		1 to 10	
